[ ]: non-standard residue; d: D form. The star is where a group is joined. Benzoyl(4-F) = O=C(c1ccc(F)cc1)*; Cit = NC(=O)NCCC[C@H](N)C(=O)O

The test system of one test is SK-N-BE(2) cells. As to the kind of experiment: Cell survival assay (PI staining, FACS). The note with it: BL-8040 0-20 μM or AMD3100 10 and 20 μM, 24 hours. The format is cell-based, human. As to the method:
(§1) A total of 1×10^5 cells/mL were cultured in 24-well plates with […] RPMI 1640 medium supplemented with 10% FCS. 24 hours later, the medium was changed to RPMI 1640 supplemented with either 1% FCS, with BL-8040 or AMD3100 or ABT199. Then 24 hours later, the cells were harvested, washed, and stained with PI (Sigma). The number of live cells was counted and analyzed using FACS analysis.

The test system of another test is Shy-SY5Y cells. As to the kind of experiment: Cell survival assay (PI staining, FACS). Type of test: cell-based, human. The note with it: BL-8040 0-20 μM or AMD3100 10 and 20 μM, 24 hours. As to the method: as §1
The subject of the next test is SK-N-BE(2)-CXCR4 cells. As to the kind of experiment: Cell survival assay (PI staining, FACS). The format is cell-based, human. The note with it: SK-N-BE(2)-CXCR4 vs native cell line; 0, 10 and 20 μM, 24 hours. On the procedure: as §1
In order to stably overexpress CXCR4, SK-N-BE(2) cells were transduced with the lentiviral bicistronic vector harboring a CXCR4 expression cassette. This was done using a three-plasmid system: pHR′-CMVCXCR4-IRES-GFP-WPRE; envelope coding plasmid VSV-G and a packaging construct CMVDR8.91 according to previously published protocol (23). For transduction of SK-N-BE(2) cells, 1 ml of viral supernatant was used, which is equivalent to an m.o.i. of ˜9.

For test [1], the system named is miR-15a, miR-16-1, BCL-2, CCND1. Put plainly: qPCR of RNA from xenograft tumors. Type of test: in vivo, NSG mice. The note with it: treated vs un-treated tumors. As to the method:
Total RNA from various cell lines and mouse tissues was isolated using Trizol reagent (Invitrogen) according to the manufacture's protocol, followed by DNaseI treatment using the DNaseI Kit where needed (Ambion). The concentrations were measured by Nanodrop (ND spectrophotometer) and the integrity was analyzed by gel electrophoreses on 1% agarose gel.
cDNA was synthesized from 0.5-1 μg total RNA using the Quanta Biosciences qScript™ cDNA Synthesis Kit (95047-100) for mRNA analysis, and using the qScript™ microRNA cDNA Synthesis Kit (95107-100) for miRNAs analysis. Quantiative PCR (qPCR) of miRNAs and mRNA was performed using the CFX384, C1000 touch thermal cycler (Bio-Rad) and a SYBR Green PCR Kit: Quanta Cat. #84018 and #84071, respectively. The fold expression and statistical significance were calculated using the 2-ΔΔ Ct method. All experiments were performed in triplicate.
Human SK-N-BE(2) cells were orthotopically injected into the left adrenal gland of 6-8 weeks old NSG mice. A 27-gauge needle was introduced through the left adrenal fat pad and 5×10∧5 cells/20 μl PBS were inoculated to the adrenal gland. NSG mice were maintained under defined flora conditions at the Hebrew University Pathogen-Free Animal Facility. Tumor growth and volume were monitored bi-weekly by using T2-weighted MRI until tumors reached the ethical limit volume and mice were randomized to drug-treated or control mice. Mice in the treated group were subjected to 2 treatment protocols. In the first treatment protocol BL-8040 (400 μg) was injected daily, starting three days following inoculation, and was continued for 35 days. In the second treatment protocol mice were monitored for 21 days. As of day 7, mice were treated with a daily injection of BL-8040 (400 μg) for 14 consecutive days.

In test [2] the test system is BCL-2, cycD1, pERK in SK-N-BE(2) cells. Put plainly: Western blot analysis of treated cells. The note with it: 20 μM, 24 hours. The format is cell-based, human. As to the method:
SK-N-BE(2) cells were seeded into a 12-well plate at 2×10^5/1 ml of medium per well. The cells were incubated for 48 hours and supernatants were collected. For whole cells: tumor samples and cells were lysed by the addition of lysis buffer containing 50 mM Tris-HCl PH 7.6, 150 mM NaCl, 5 mM EDTA pH 8, 0.5% NP40 and protease inhibitor cocktail (Roche Diagnostics). Lysate was incubated with buffer for 15-20 minutes and then centrifuges at 14,000 rpm, 15 min, at 4° C. Protein amounts were determined by Bradford assay (Bio-Rad).
Protein extracts were equally loaded onto 10% SDS-polyacrylamide gel, electrophorized and transferred onto a polyvinylidenedifluoride (PVDF) membrane (Bio-Rad Laboratories). Then, membranes were blocked and incubated with primary specific antibody O.N. at 4° C. For BCL-2 mouse monoclonal (Abcam). For cycD1 rabbit monoclonal (Thermo). For pERK1/2 rabbit monoclonal (Cell signaling). For β-Actin mouse monoclonal (MP biomedicals). After the washing procedure (3 times, 10 min in washing solution), the membrane was incubated with a secondary immunopure HRP-conjugated antibody, anti-mouse or anti rabbit (Envision; Dako) (1/10,000), washed (5 times, 6 min) and detected with the EZ-ECL kit (Biological Industries). Photon emission was identified by ChemiDoc MP imaging system (Bio-Rad). Intensities of protein bands were quantified by computerized densitometry using Image lab software (Bio-Rad).
Background: A western blot detects proteins with antibodies after separation by electrophoresis.

The test system of test [3] is BCL-2, cycD1, pERK in Shy-SY5Y cells. As to the kind of experiment: Western blot analysis of treated cells. Type of test: cell-based, human. The note with it: 20 μM, 24 hours.
A further test concerns the target CXCR4 receptor (Homo sapiens, UniProt P61073). The note with it: Peled et al. 2012; cited from earlier work.
The test system of test [4] is CXCR4-expressing malignancies. The note with it: multiple myeloma, AML, CML, non-small cell lung cancer, metastatic breast cancer; cited from earlier work.

Sequence of CXCR4 receptor (P61073 whole entry): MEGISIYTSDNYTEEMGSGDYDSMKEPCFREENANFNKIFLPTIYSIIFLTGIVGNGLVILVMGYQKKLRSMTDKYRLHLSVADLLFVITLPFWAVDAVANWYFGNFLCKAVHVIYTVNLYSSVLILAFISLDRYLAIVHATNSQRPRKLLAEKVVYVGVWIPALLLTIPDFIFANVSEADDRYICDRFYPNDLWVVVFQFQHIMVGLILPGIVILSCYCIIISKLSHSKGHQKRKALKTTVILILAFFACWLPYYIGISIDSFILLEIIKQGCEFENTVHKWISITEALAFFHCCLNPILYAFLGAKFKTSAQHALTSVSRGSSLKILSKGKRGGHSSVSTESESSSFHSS

For the substance “4F-benzoyl-Arg-Arg-Nal-Cys-Tyr-Cit-Lys-DLys-Pro-Tyr-Arg-Cit-Cys-Arg-NH2 ({Benzoyl(4-F)}-RR[Nal]CY[Cit]K[dK]PYR[Cit]CR-NH2; not fully specified; printed as 4F-benzoyl-Arg-Arg-Nal-Cys-Tyr-Cit-Lys-DLys-Pro-Tyr-Arg-Cit-Cys-Arg-NH2; cysteine pairing not given here) [BL-8040]”, the “cell viability (viable cells counted)” value in the test with SK-N-BE(2) cells is “decreased viability”. The “cell viability (viable cells counted)” value with Shy-SY5Y cells is listed as “decreased viability”. Besides, the “sensitivity to BL-8040 treatment in-vitro (viability)” value in the test on SK-N-BE(2)-CXCR4 cells is recorded as “increased sensitivity”. Moreover, in test [1], the “BCL-2 mRNA in tumors (qPCR)” value is recorded as “significantly downregulated” and the “CCND1 mRNA in tumors (qPCR)” value is listed as “significantly downregulated”. Moreover, in test [1] (n=9), the “miR-15a level in tumors (qPCR)” value is reported as “significantly elevated” and the “miR-16-1 level in tumors (qPCR)” value is on record as “significantly elevated”. For the same substance, in test [2], the “BCL-2 protein (western blot)” value is on record as “reduction”, the “ERK phosphorylation (western blot)” value is listed as “decreased ERK phosphorylation” and the “cycD1 protein (western blot)” value was “reduction”. In test [3], the “BCL-2 protein (western blot)” value was “reduction”, the “ERK phosphorylation (western blot)” value is reported as “decreased ERK phosphorylation” and the “cycD1 protein (western blot)” value is reported as “reduction”. In addition, in the test with CXCR4 receptor, the “affinity of binding to the CXCR4 receptor” value is listed as “high affinity” and the receptor occupancy entry is “long receptor occupancy”. In test [4], the “effects on CXCR4-expressing malignancies” value is “toxic effects”.
